The record followed here is patent US20050154042A1, “N-alkyl pyrroles as HMG-CoA reductase inhibitors” (priority 2003, published 2005).

Where a name gives a salt, the structure may show the parent alone.

The target in data set [1] is T1, HMGCoA (3-Hydroxy-3-methylglutaryl CoA) Reductase (Rattus norvegicus, UniProt P51639).
T1 construct: Male Charles River Sprague-Dawley rats were fed with 2.5% cholestyramine in rat chow diets for 5 days before sacrificing; from tissue; host or cells: liver microsomes of male Sprague-Dawley rats fed cholestyramine
T1 sequence (P51639 1-887): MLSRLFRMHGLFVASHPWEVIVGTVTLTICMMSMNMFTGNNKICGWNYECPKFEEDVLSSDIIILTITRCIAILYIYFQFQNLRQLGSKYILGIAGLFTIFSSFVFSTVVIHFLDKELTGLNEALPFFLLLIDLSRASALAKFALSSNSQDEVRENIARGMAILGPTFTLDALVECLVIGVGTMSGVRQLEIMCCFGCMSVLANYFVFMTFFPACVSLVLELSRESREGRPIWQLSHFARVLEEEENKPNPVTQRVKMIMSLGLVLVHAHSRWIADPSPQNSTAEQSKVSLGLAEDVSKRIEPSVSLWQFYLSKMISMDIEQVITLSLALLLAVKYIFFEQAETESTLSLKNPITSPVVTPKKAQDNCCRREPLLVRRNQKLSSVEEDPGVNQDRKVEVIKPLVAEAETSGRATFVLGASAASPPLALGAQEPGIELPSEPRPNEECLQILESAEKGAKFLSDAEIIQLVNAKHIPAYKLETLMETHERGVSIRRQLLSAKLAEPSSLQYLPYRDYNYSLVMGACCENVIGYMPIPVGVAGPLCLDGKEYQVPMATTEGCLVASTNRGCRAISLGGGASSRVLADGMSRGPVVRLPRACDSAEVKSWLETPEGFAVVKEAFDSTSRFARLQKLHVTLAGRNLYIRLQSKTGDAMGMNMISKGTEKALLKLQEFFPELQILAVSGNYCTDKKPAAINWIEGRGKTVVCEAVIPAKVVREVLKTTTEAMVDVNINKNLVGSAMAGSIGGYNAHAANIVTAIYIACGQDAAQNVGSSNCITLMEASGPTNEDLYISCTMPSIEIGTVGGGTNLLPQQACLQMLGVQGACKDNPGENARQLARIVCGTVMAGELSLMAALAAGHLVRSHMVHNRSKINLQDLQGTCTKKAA
Description: HMGCoA reductase assay with rat liver microsomes (14C-HMGCoA). As to conditions: 45 min at 37° C. In kind it is biochemical. The source says:
(See, e.g., J. of Lipid Research 1998; 39: 75-84; Analytical Biochemistry, 1991; 196: 211-214; RR740-01077 Pharmacology 8, Nov., 1982) Accordingly, such compounds and formulations comprising such compounds are useful for treating, controlling or preventing inter alia hypercholesterolemia, hyperlipidemia, hypertriglyceridemia or atherosclerosis.
Rat Liver Microsomal Isolation Procedure:
Male Charles River Sprague-Dawley rats were fed with 2.5% cholestyramine in rat chow diets for 5 days before sacrificing. Livers were minced and homogenized in a sucrose homogenizing solution in an ice bath 10 times. Homogenates were diluted into a final volume of 200 mL, and centrifuged 15 min. with a Sorvall Centrifuge at 5° C., 10,000 rpm (12,000×G). The upper fat layer was removed and the supernatant decanted into fresh tubes. This step was repeated one more time before transferring the supernatant into ultracentrifuge tubes and centrifuged at 36,000 rpm (105,000×G) for an hour at 5° C. The resulting supernatant was discarded and the pellet was added to total of 15 mL 0.2 M KH2PO4. Pellets were homogenized gently by hand about 10 times. Samples were pooled and diluted into total of 60 mL buffer. The protein concentration of the homogenate was determined by the […] using a BCA kit from Pierce Chemical Company. 1 mL aliquots of microsomes were kept frozen in liquid nitrogen.
HMGCoA (3-Hydroxy-3-methylglutaryl CoA) Reductase Assay:
[3-^14C]-HMGCoA (57.0 mCi/mmol) was purchased from Amersham Biosciences, UK. HMGCoA, mevalonolactone, NADPH were purchased from Sigma Chemical Co. AG 1-8X resin was purchased from Bio-Rad Laboratory.
One μL of dimethyl sulfoxide (DMSO) or 1 μL of DMSO containing a test compound at a concentration sufficient to give a final assay concentration of between 0.1 nM to 1 mM was placed into each well of a Corning 96 well plate. […] Scintillation cocktail (Ultima-Flo-M) was added into each well and plates counted on a Trilux Microbeta Counter. The IC50 values were calculated with GraphPad software (Prism). […]
On the technique in general: Liver microsomes are a subcellular fraction often used to study metabolism.

A further data set relates to rat hepatocytes. Description: Sterol biosynthesis in rat hepatocytes (14C acetic acid labeling). In kind it is cell-based. Conditions: Hepatocyte, 14C cholesterol from 14C acetic acid, 4 hrs pre-incubation + 4 hrs labeling. The method, then:
Protocol for Sterol Biosynthesis in Rat Hepatocytes:
(§1) Cell Culture, Compounds Treatment and Cell Labeling:
Frozen rat hepatocytes purchased from XenoTech(cat# N400572) were seeded on 6-well collagen I coated plates at a density of […]. The cells were grown in DMEM medium (Gibco, #11054-020) containing 10% FBS and 10 mM HEPES(Gibco # 15630-080) for 24 hrs. The cells were pre-incubated with compounds for 4 hrs and then labeled by incubating in medium containing 1 uCi/per ml of ^14C acetic acid for an additional 4 hrs. After labeling, the cells were washed twice with 5 mM MOPS solution containing 150 mM NaCl and 1 mM EDTA and collected in the lysis buffer containing 10% KOH and 80%(vol.) ethanol.
Cholesterol Extraction and Data Analysis:
In order to separate labeled cholesterol from labeled non-cholesterol lipids, the cells lysates were subject to saponification at 60° C. for 2 hrs. The lysates were then combined with 0.5 volume of H2O and 2 volumes of hexane, followed by 30 minutes of vigorous shaking. After the separation of two phases, the upper-phase solution was collected and combined with 5 volumes of scintillation cocktail. The amount of ^14C cholesterol was quantified by liquid scintillation counting. The IC50 values were calculated with GraphPad software (Prism 3.03).

The next data set concerns L6 rat myoblast. The experiment in a line: Sterol biosynthesis in L6 rat myoblast (14C acetic acid labeling). In kind it is cell-based. As to conditions: 14C cholesterol from 14C acetic acid, 3 hours pre-incubation + 3 hours labeling. The method, then: C.) Protocol for Sterol Biosynthesis in L6 Rat Myoblast:
as §1
L6 rat myoblast purchased from ATCC(CRL-1458) were grown in T-150 vented culture flasks and seeded on 12-well culture plates at a density of 60,000 cells per well. The cells were grown in DMEM, (Dulbecco's Modified Eagle Medium) (Gibco, #10567-014) containing 10% heat inactivated FBS (Fetal Bovine Serum) (Gibco # 10082-139) for 72 hours until reaching confluence. The cells were pre-incubated in media with compound and 0.2% DMSO (dimethyl sulfoxide) for 3 hours and then labeled by incubating in medium containing compound, 0.2% DMSO and 1 μCi/per mL of ^14C acetic acid for an additional 3 hours. […]
Lipid ester bonds were hydrolyzed by saponification of the lysates at 60° C. for 2 hours. […] The amount of ^14C cholesterol was quantified by scintillation counting in a Trilux 1450 plate reader (Wallac). The IC50 values were calculated from % inhibitions relative to negative controls vs. compound concentration on Microsoft excel 2000 data analysis wizard using a sigmoid inhibition curve model with formula: y=Bmax(1−(x^n/K^n+x^n))+y2 Where K is the IC50 for the inhibition curve, X is inhibitor concentration, Y is the response being inhibited and Bmax+Y2 is the limiting response as X approaches zero.

The term IC50 denotes the midpoint of a concentration-inhibition curve. As usually defined, the melting point is the temperature of the solid-liquid transition. `CC(C)n1c(CC[C@@H](O)C[C@@H](O)CC(=O)[O-])c(-c2ccc(F)cc2)c(-c2ccccc2)c1C(=O)Nc1ccccc1.[Na+]` [Example 1, (3R,5R)-7-[3-(4-fluoro-phenyl)-1-isopropyl-4-phenyl-5-phenylcarbamoyl-1H-pyrrol-2-yl]-3,5-dihydroxy-heptanoic Acid Sodium Salt] yielded a melting point of 239 to 241 °C. The same molecule yielded a concentration for half-maximal inhibition (IC50) in data set [1] of 12 nM. Moreover, the IC50 in the data set on rat hepatocytes was found to be 0.74 nM. Moreover, the IC50 in the data set with L6 rat myoblast came to 157 nM.

`CC(C)n1c(CCC(O)CC(O)CC(=O)[O-])c(-c2ccc(F)cc2)c(-c2ccccc2)c1C(=O)Nc1ccc(C(=O)[O-])cn1.[Na+].[Na+]` (centres unmarked) [Example 25, 6-{[5-(6-Carboxy-3,5-dihydroxy-hexyl)-4-(4-fluoro-phenyl)-1-isopropyl-3-phenyl-1H-pyrrole-2-carbonyl]-amino}-nicotinic Acid di-sodium Salt] came in with a melting point of over 250 °C. This molecule also registered an IC50 in data set [1] of 0.61 nM. Also, the IC50 in the data set with rat hepatocytes is 0.19 nM. Also, the IC50 with L6 rat myoblast came to 2270 nM.

With `CC(C)n1c(CC[C@@H](O)C[C@@H](O)CC(=O)O)c(-c2ccc(F)cc2)c(-c2ccccc2)c1C(=O)Nc1ccc(F)cc1` [Example 6, (3R,5R)-7-[3-(4-Fluoro-phenyl)-5-(4-fluoro-phenylcarbamoyl)-1-isopropyl-4-phenyl-1H-pyrrol-2-yl]-3,5-dihydroxy-heptanoic Acid Sodium Salt], the IC50 in data set [1] amounted to 4.1 nM; in the data set with rat hepatocytes, 0.23 nM.

Take `CC(C)n1c(CC[C@@H](O)C[C@@H](O)CC(=O)[O-])c(-c2ccc(F)cc2)c(-c2ccc(F)cc2)c1C(=O)Nc1cccc(O)c1.[Na+]` [Example 135, (3R,5R)-7-[3,4-Bis-(4-fluoro-phenyl)-5-(3-hydroxy-phenylcarbamoyl)-1-isopropyl-1H-pyrrol-2-yl]-3,5-dihydroxy-heptanoic Acid Sodium Salt]: the melting point was 220 to 222 °C.

In the case of `CC(C)n1c(CC[C@@H](O)C[C@@H](O)CC(=O)[O-])c(-c2ccc(F)cc2)c(-c2ccccc2)c1C(=O)N(c1ccccn1)c1ccccn1.[Na+]` [Example 123, (3R,5R)-7-[5-(Di-pyridin-2-yl-carbamoyl)-3-(4-fluoro-phenyl)-1-isopropyl-4-phenyl-1H-pyrrol-2-yl]-3,5-dihydroxy-heptanoic Acid Sodium Salt], the melting point was 223 to 225 °C (dec.).

`CC(C)n1c(/C=C/[C@@H](O)C[C@@H](O)CC(=O)[O-])c(-c2ccc(F)cc2)c(-c2ccccc2)c1C(N)=O.[Na+]` [Example 160, (3R,5S)-7-[5-Carbamoyl-3-(4-fluoro-phenyl)-1-isopropyl-4-phenyl-1H-pyrrol-2-yl]-3,5-dihydroxy-hept-6-enoic Acid Sodium Salt] registered a melting point of 238 to 240 °C.

`CC(C)n1c(CCC(O)C[C@@H](O)CC(=O)O)c(-c2ccc(F)cc2)c(-c2ccccc2)c1C(=O)Nc1ccc(F)cc1` (stereo partly drawn) (as salt: sodium) [Example 8, (3R)-7-[3-(4-Fluoro-phenyl)-5-(4-fluoro-phenylcarbamoyl)-1-isopropyl-4-phenyl-1H-pyrrol-2-yl]-3,5-dihydroxy-heptanoic Acid Sodium Salt] displayed a melting point of 240 to 242 °C.
